The record followed here is patent US20250163072A1, “MACROCYCLIC COMPOUNDS FOR THE TREATMENT OF CANCER” (Hoffmann-La Roche Inc., priority 2021, published 2025).

Data set [1] is described as follows: GSH reaction rates (inherent GSH reactivity). It is filed as in vitro ADME. The following applies: 1 μM compound, 5 mM GSH, 37° C. An outline of the steps:
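Compounds at 1 μM were incubated at 37° C with or without 5 mM GSH in 100 mM potassium phosphate pH 7.4 for 0-6 h. Samples were quenched with acetonitrile/N-ethylmaleimide and the remaining compound quantified by LC-MS/MS to derive T1/2.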

Data set [2] can be described thus: Human hepatocytes stability assay. It is filed as in vitro ADME. An outline of the steps: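 Compound at 1 μM incubated with cryopreserved suspension hepatocytes (1×10^6 cells/mL) in supplemented Williams' E Medium at 37° C, 5% CO2, with shaking. Reactions quenched with methanol at 2, 10, 20, 40, 60 and 120 min; parent depletion followed by LC-MS/MS.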
Data set [3] deals with KRAS G12V binding to BRAF (Homo sapiens (Human), UniProt P01116+P62937, G12V). The data set is described as follows: KRAS-BRAF with CYPA (50 nM) interaction assay (TR-FRET), G12V. The note with it: GMPPNP loaded 6His-KRAS, GST-BRAF RBD. The procedure, abridged: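 Buffer 25 mM HEPES pH 7.4, 100 mM NaCl, 5 mM MgCl2, 10 μM GMPPNP, 0.1% BSA; final 50 nM tagless CYPA, 6.25 nM GMPPNP-loaded 6His-KRAS mutant, 1 nM GST-BRAF RBD. Compounds 16-point 3-fold series from 10 μM, 3 h; anti-6His-XL665/anti-GST-Tb added, 1.5 h; 665/615 nm ratio decrease versus DMSO.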
(Time-resolved FRET reads energy transfer from a long-lived donor to a nearby acceptor.)

A further data set concerns KRAS G12D in AGS cells. The data set is described as follows: pERK inhibition assay, AGS. It is filed as cell-based, human. The note with it: Homo sapiens, 4 hours incubation. The procedure, abridged: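 NCI-H358, AGS and SW620 cells in RPMI-1640/10% FBS were plated overnight, then exposed to compound (0.5% DMSO final) for 4 h. After fixation and permeabilization, phospho-ERK was quantified by in-cell ELISA (HRP secondary, TMB, OD450); IC50 from a 4-parameter sigmoidal fit.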

A further data set concerns NCI-H358 cells. The data set can be described thus: Cell viability assay, NCI-H358. It is filed as cell-based, human. The note with it: Homo sapiens, NCI-H358, 72 hours, Cell Counting Kit-8, read-out: G12C IC50. The procedure, abridged:
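Cells were plated at 5,000 (NCI-H358) or 2,000 (AGS, SW620) per well and incubated overnight. They were then treated with compound in 0.5% DMSO for 72 h. Viability was read with CCK-8 as OD450 minus OD650 after 2 h, and IC50 came from a 4-parameter sigmoidal fit.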
For orientation: Tetrazolium assays rely on reduction of a dye to a coloured formazan, in cell work by metabolically active cells.

Each structure is given as a SMILES string.

Sequence of KRAS G12V binding to BRAF (P01116-2 other isoform, or with tags, fused parts or gaps G12V): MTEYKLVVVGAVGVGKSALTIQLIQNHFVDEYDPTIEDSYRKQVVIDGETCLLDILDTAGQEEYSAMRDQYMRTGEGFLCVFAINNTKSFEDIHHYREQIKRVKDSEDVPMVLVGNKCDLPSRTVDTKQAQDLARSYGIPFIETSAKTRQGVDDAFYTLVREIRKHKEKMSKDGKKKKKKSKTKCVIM
Sequence of KRAS G12V binding to BRAF (P62937 whole entry): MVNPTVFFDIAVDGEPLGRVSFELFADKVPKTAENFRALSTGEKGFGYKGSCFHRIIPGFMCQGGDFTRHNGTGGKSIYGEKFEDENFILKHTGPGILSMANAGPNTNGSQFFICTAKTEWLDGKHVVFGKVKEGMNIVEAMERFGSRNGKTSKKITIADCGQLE

Broadly, the IC50 is the concentration that inhibits the measured activity by half. For the compound `CO[C@@H](C)c1ncc(N2CCOCC2)cc1-c1c2c3cc(ccc3n1CC(F)(F)F)-c1csc(n1)C[C@H](NC(=O)[C@H](C(C)C)N(C)C(=O)[C@H]1CCN(C(=O)[C@H](F)Cl)C1)C(=O)N1CCC[C@H](N1)C(=O)OCC(C)(C)C2` (atropisomer, axis not shown; (M)) [Example 25, (3S)-1-[(2R)-2-chloro-2-fluoro-acetyl]-N-[(1S)-1-[[(7S,13S)-(20M)-20-[2-[(1S)-1-methoxyethyl]-5-morpholino-3-pyridyl]-17,17-dimethyl-8,14-dioxo-21-(2,2,2-trifluoroethyl)-15-oxa-4-thia-9,21,27,28-tetrazapentacyclo[17.5.2.12,5.19,13.022,26]octacosa-1(25),2,5(28),19,22(26),23-hexaen-7-yl]carbamoyl]-2-methyl-propyl]-N-methyl-pyrrolidine-3-carboxamide], the “Remaining at 6 hr in GSH (%)” value in data set [1] (pH 7.4, 6 hr) is given as 100%. Further, the “T1/2(hour) in GSH” value in data set [1] (potassium phosphate buffer pH 7.4) is reported as “stable (If % depletion after 6 hour incubation is less than 20%, compounds were reported as stable)”. Besides, the “CL_hep (Human)” value in data set [2] (1 μM compound, human hepatocytes 1×10^6 cells/mL) worked out at 9.8 mL/min/kg. For the same compound, in data set [2] (human hepatocytes), the “Clearance Category” value is recorded as “medium (16.24<CL_hep (mL/min/kg)>6.96 is medium clearance)”. The IC50 in data set [3] was above 10000 nM; with KRAS G12D in AGS cells, 13 nM; in the data set on NCI-H358 cells, below 0.6 nM.
